These results are taken from PubChem BioAssay (NCI).

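Growth conditions: 96-well plates. Treatment: test compound, 48 hours, 5 concentrations. Analysis: linear interpolation between bracketing concentrations; unreached endpoints set to highest concentration. TGI is the concentration that stops growth completely.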

What all share (assay): NCI-60 cell line screen, 48 h
The test system of assay [1] is A549 NSCLC.
The test system of assay [2] is CAKI-1 renal.
For assay [3], the system named is HCT-116 colon.
Assay [4] relates to HCT-15 colon.
Assay [5] concerns HOP-92 NSCLC.
Assay [6] deals with LOX IMVI melanoma.
In assay [7] the test system is MCF7 breast.
Assay [8] concerns MDA-N.
Assay [9] deals with NCI-H460 lung.
Assay [10] has as its system OVCAR-4 ovarian.
The subject of assay [11] is OVCAR-8 ovarian.
For assay [12], the system named is SF-268 CNS.
Assay [13] deals with SF-295 CNS.

`COc1cc2c3c([nH]c2c(OC)c1OC)CCN(Cc1ccccc1)C3`: the TGI was over 100 µM in assay [1]; over 100 µM in [2]; over 100 µM in assay [3]; over 100 µM in assay [4]; 41.5 µM in [5]; 32.1 µM in [6]. Moreover, the TGI is 41.8 µM in [7]; 33.9 µM in [8]; 63.5 µM in assay [9]; over 100 µM in [10]; over 100 µM in [11]; over 100 µM in [12]. The TGI in assay [13] was over 100 µM.
For `c1ccc(N=C2c3ccsc3C(=Nc3ccccc3)c3ccsc32)cc1`, the TGI in assay [1] came to 4.1 µM; in assay [2], 10.2 µM; in [3] it was 3.89 µM; in assay [4], 4.12 µM; in [5] it was 9.37 µM; in assay [6], 1.38 µM. Also, the TGI in assay [7] was 4.79 µM; in assay [8], 0.554 µM; in [9], 4.03 µM; in [10] it was 3.32 µM; in assay [11], 5.68 µM; in assay [12], 6.82 µM. In assay [13], this molecule returned a TGI of 3.11 µM.
As to `O=c1[nH]c2nc3ccccc3c(=O)n2/c1=C/c1ccco1`, the TGI in [1], in [2], in assay [3], in assay [4], in [5] and in assay [6] was over 100 µM in each case. Also, the TGI in assay [7], in assay [8], in assay [10], in assay [11], in [12] and in assay [13] was over 100 µM each time.
Take `O=C1c2c(Br)sc(Br)c2[C@@H](NC(=O)C(F)(F)F)C1Br` (stereo partly specified): the TGI in [1] was found to be 32.7 µM; in assay [2], 8.82 µM; in [3], 2.76 µM; in [4], 4.61 µM; in [5], 6.69 µM; in assay [6] it was 3.24 µM. The TGI in assay [7] was found to be 15.6 µM; in assay [8] it was 9.14 µM; in assay [9], 31 µM; in assay [10], 5.33 µM; in [11], 7.73 µM; in [12], 15.2 µM. In assay [13], this molecule gave a TGI of 31.6 µM.
As for `CCc1ccc2c(c1)N(CC(C)CN(C)C)c1ccccc1S2` (stereo unspecified), the TGI in assay [1] is 21.7 µM; in [2], 18.3 µM; in [3] it was 11 µM; in assay [4], 17.8 µM; in [5], 15.4 µM; in assay [6] it was 10.3 µM. Besides, the TGI in assay [7] was determined as 11.5 µM; in [8] it was 17.4 µM; in [9] it was 8.51 µM; in assay [10], 17 µM; in assay [11], 21.8 µM; in [12], 20.5 µM. This molecule displayed a TGI in assay [13] of 21.5 µM.
On to `COc1ccc2c3c1O[C@H](c1ccc(O)cc1)[C@H]3[N+](C)(C)CC2`, for which the TGI in assay [1], in assay [2], in assay [3], in [4], in assay [5] and in [6] was over 100 µM each time. In addition, the TGI in assay [7], in [8], in [9], in assay [10], in assay [11] and in assay [12] was over 100 µM in each case. The same molecule displayed a TGI in assay [13] of over 100 µM.
Turning to `COc1cc(Oc2nc3ccc(C(F)(F)F)cc3nc2-c2ccccc2)cc(OC)c1OC`, the TGI in [1] was 49.7 µM; in [2], 17.3 µM; in [3] it was 31.4 µM; in [4], over 100 µM; in [5], 45.7 µM; in assay [6], over 100 µM. The TGI was over 100 µM in [7]; over 100 µM in assay [8]; over 100 µM in assay [9]; 26.3 µM in assay [10]; over 100 µM in assay [11]; 95.2 µM in assay [12]. For the same molecule, the TGI in [13] is 28.2 µM.
Regarding `CCCc1[nH]c2ccccc2c1-c1c(CCC)[nH]c2ccccc12`, the TGI in assay [1] was over 75.4 µM; in assay [2] it was 38.5 µM; in assay [3], 15.2 µM; in assay [4], 23.5 µM; in [5] it was 62.4 µM; in assay [6], 17.3 µM. Also, the TGI in [7] was 29.9 µM; in [8], 24.4 µM; in assay [9], 59.7 µM; in assay [10], over 68.2 µM; in [11] it was 11.2 µM; in assay [12], 28.3 µM. Moreover, the TGI in assay [13] came to 32.8 µM.
For the molecule `C=C(C)[C@@H]1CC[C@]2(C(=O)OC)CC[C@]3(C)[C@H](CC[C@@H]4[C@@]5(C)CC[C@H](O)C(C)(C)[C@@H]5CC[C@]43C)[C@@H]12`, the TGI in assay [1] worked out at 37.7 µM; in assay [2], 39.6 µM; in assay [3], 37.4 µM; in assay [4], 50.6 µM; in assay [5], 41.3 µM; in [6] it was 34.6 µM. Besides, the TGI in assay [7] was determined as 41.6 µM; in assay [8], 42.7 µM; in assay [9], 38.4 µM; in assay [11] it was 51.2 µM; in assay [12] it was 67.3 µM; in [13], 34.4 µM.
In the case of `Clc1ccc2oc(CCc3ccccc3)nc2c1`, the TGI in [1], in assay [2], in assay [3], in [4], in [5] and in assay [6] was over 100 µM in each case. The TGI in [7], in assay [8], in assay [9], in assay [10], in assay [11] and in assay [12] was over 100 µM in each case. For the same molecule, the TGI in assay [13] is over 100 µM.
Turning to `COC(=O)C1CCC(=O)N1C(c1ccc2c(c1)OCO2)c1cc(OC)c(OC)c(OC)c1` (stereo unspecified), the TGI in assay [1], in [2], in assay [3], in assay [4], in assay [5] and in assay [6] was over 100 µM each time. Moreover, the TGI in assay [7], in assay [8], in assay [9], in assay [10], in [11] and in assay [12] was over 100 µM in each case. For the same molecule, in assay [13], the TGI was over 100 µM.
